pEC50: −log10 of the molar value.
Key:
Hepatitis C virus = assay: Antiviral activity against Hepatitis C virus 1b con1 infected in human hepatoma cells assessed as decrease in replicon RNA level after 3 days by RT-PCR analysis; type: functional, organism-based, Hepacivirus hominis; settings: Con1, 72 h
[1] = Cytotoxicity against human hepatoma cells after 3 days by MTS assay; type: cell-based
[2] = Cytotoxicity against human hepatoma cells assessed as decrease in GAPDH RNA level after 3 days by RT-PCR analysis; type: cell-based
[3] = AUC (0 to 6 hrs) in rat at 10 mg/kg, po; type: ADME, organism-based; design: time < 6 hr, dose 10 mg/kg, route oral; settings: plasma
Liver = assay: Drug uptake in rat liver assessed per gram of tissue at 10 mg/kg, po measured at 6 hrs; type: ADME, organism-based; design: dose 10 mg/kg, route oral; settings: in vivo

Structure (SMILES)	pEC50 (Hepatitis C virus)	CC50 at 72 h [1] [µM]	CC50 at 72 h [2] [µM]	AUC(0-t) at 6 h [3] [µM·h]	liver concentration (Liver) [ng/g]
CCc1cc2cc(-c3c(C)nc(NCC(C)C)nc3N[C@@H]3C[C@H](CO)[C@@H](O)[C@H]3O)oc2cn1	7.10	12	7	–	–
Cc1nccc2cc(-c3c(Cl)nc(N)nc3N[C@@H]3C[C@H](CO)[C@@H](O)[C@H]3O)oc12	6.92	> 25	> 25	–	–
Cc1cncc2oc(-c3c(Cl)nc(N)nc3N[C@@H]3C[C@H](CO)[C@@H](O)[C@H]3O)cc12	5.85	> 25	25	–	–
Nc1nc(Cl)c(-c2cc3ccncc3o2)c(N[C@@H]2C[C@H](CO)[C@@H](O)[C@H]2O)n1	7.15	25	25	–	–
COc1cc2cc(-c3c(C)nc(NCC(C)(C)C)nc3N[C@@H]3C[C@H](CO)[C@@H](O)[C@H]3O)oc2c(C)n1	7.40	21	17	–	–
COc1cc2cc(-c3c(Cl)nc(N)nc3N[C@@H]3C[C@H](CO)[C@@H](O)[C@H]3O)oc2c(C)n1.Cl	–	–	–	0.1	–
CCc1nccc2cc(-c3c(Cl)nc(N)nc3N[C@@H]3C[C@H](CO)[C@@H](O)[C@H]3O)oc12	7.70	24	19	–	–
COc1cc2cc(-c3c(Cl)nc(N)nc3N[C@@H]3C[C@H](CO)[C@@H](O)[C@H]3O)oc2c(C)n1	8.00	25	–	–	–
CCc1cc2cc(-c3c(Cl)nc(N)nc3N[C@@H]3C[C@H](CO)[C@@H](O)[C@H]3O)oc2cn1	8.00	22	12	–	–
CCOc1cc2cc(-c3c(C)nc(NC)nc3N[C@@H]3C[C@H](CO)[C@@H](O)[C@H]3O)oc2c(C)n1.Cl	–	–	–	1.4	238
CCc1cc2cc(-c3c(C)nc(NC)nc3N[C@@H]3C[C@H](CO)[C@@H](O)[C@H]3O)oc2cn1	7.52	> 25	> 25	–	–
CCc1cc2cc(-c3c(C)nc(NCC(C)C)nc3N[C@@H]3C[C@H](CO)[C@@H](O)[C@H]3O)oc2cn1.Cl	–	–	–	4.5	251
CCc1cc2cc(-c3c(C)nc(NCC(C)(C)C)nc3N[C@@H]3C[C@H](CO)[C@@H](O)[C@H]3O)oc2cn1	7.52	11	10	–	–
CCc1cc2cc(-c3c(C)nc(NCCCC(F)(F)F)nc3N[C@@H]3C[C@H](CO)[C@@H](O)[C@H]3O)oc2cn1.Cl	–	–	–	0.9	1000
CCCCCNc1nc(C)c(-c2cc3cc(CC)ncc3o2)c(N[C@@H]2C[C@H](CO)[C@@H](O)[C@H]2O)n1	7.52	3	3	–	–
CCc1cc2cc(-c3c(C)nc(NCc4cc(OC)cc(OC)c4)nc3N[C@@H]3C[C@H](CO)[C@@H](O)[C@H]3O)oc2cn1	8.52	20	> 25	–	–
CCOc1cc2cc(-c3c(C)nc(NCC(F)(F)F)nc3N[C@@H]3C[C@H](CO)[C@@H](O)[C@H]3O)oc2c(C)n1	7.70	> 25	> 25	–	–
CNc1nc(C)c(-c2cc3cc(OC)nc(C)c3o2)c(N[C@@H]2C[C@H](CO)[C@@H](O)[C@H]2O)n1	7.22	25	> 25	–	–
CCOCCNc1nc(C)c(-c2cc3cc(CC)ncc3o2)c(N[C@@H]2C[C@H](CO)[C@@H](O)[C@H]2O)n1.Cl	–	–	–	1.2	492
CCOc1cc2cc(-c3c(C)nc(NCC(C)(C)C)nc3N[C@@H]3C[C@H](CO)[C@@H](O)[C@H]3O)oc2c(C)n1	7.30	23	12	–	–
CCOc1cc2cc(-c3c(C)nc(NCCOC)nc3N[C@@H]3C[C@H](CO)[C@@H](O)[C@H]3O)oc2c(C)n1.Cl	–	–	–	1.1	285
CCOc1cc2cc(-c3c(C)nc(NCC(C)(C)C)nc3N[C@@H]3C[C@H](CO)[C@@H](O)[C@H]3O)oc2c(C)n1.Cl	–	–	–	6.8	2330
CCc1nccc2cc(-c3c(Cl)nc(N)nc3N[C@@H]3C[C@H](CO)[C@@H](O)[C@H]3O)oc12.Cl	–	–	–	0.05	–
CNc1nc(Cl)c(-c2cc3cc(OC)nc(C)c3o2)c(N[C@@H]2C[C@H](CO)[C@@H](O)[C@H]2O)n1.Cl	–	–	–	6.5	274
COc1cc(CNc2nc(C)c(-c3cc4cc(OC)nc(C)c4o3)c(N[C@@H]3C[C@H](CO)[C@@H](O)[C@H]3O)n2)cc(OC)c1.Cl	–	–	–	0.5	178
CCOc1cc2cc(-c3c(C)nc(NCc4cc(OC)cc(OC)c4)nc3N[C@@H]3C[C@H](CO)[C@@H](O)[C@H]3O)oc2c(C)n1	8.70	> 25	> 25	–	–
CCOc1cc2cc(-c3c(C)nc(NCCOC)nc3N[C@@H]3C[C@H](CO)[C@@H](O)[C@H]3O)oc2c(C)n1	8.05	> 25	> 25	–	–

Structure (SMILES)	pEC50 (Hepatitis C virus)	CC50 at 72 h [1] [µM]	CC50 at 72 h [2] [µM]	AUC(0-t) at 6 h [3] [µM·h]	liver concentration (Liver) [ng/g]
Nc1nc(Cl)c(-c2cc3cnccc3o2)c(N[C@@H]2C[C@H](CO)[C@@H](O)[C@H]2O)n1	5.77	25	–	–	–
Cc1cc2cc(-c3c(Cl)nc(N)nc3N[C@@H]3C[C@H](CO)[C@@H](O)[C@H]3O)oc2c(C)n1.Cl	8.00	22	15	0.01	–
CCOc1cc2cc(-c3c(C)nc(NC)nc3N[C@@H]3C[C@H](CO)[C@@H](O)[C@H]3O)oc2c(C)n1	7.30	–	> 25	–	–
CNc1nc(C)c(-c2cc3cc(OC)nc(C)c3o2)c(N[C@@H]2C[C@H](CO)[C@@H](O)[C@H]2O)n1.Cl	–	–	–	2.7	310
CCc1cc2cc(-c3c(Cl)nc(N)nc3N[C@@H]3C[C@H](CO)[C@@H](O)[C@H]3O)oc2c(CC)n1	7.70	16	25	–	–
CCOc1cc2cc(-c3c(C)nc(Nc4ccccc4)nc3N[C@@H]3C[C@H](CO)[C@@H](O)[C@H]3O)oc2c(C)n1.Cl	–	–	–	18.5	8980
CCc1cc2cc(-c3c(C)nc(NCC(F)(F)F)nc3N[C@@H]3C[C@H](CO)[C@@H](O)[C@H]3O)oc2cn1	7.70	15	13	–	–
Nc1nc(Cl)c(-c2cc3cccnc3o2)c(N[C@@H]2C[C@H](CO)[C@@H](O)[C@H]2O)n1	6.40	19	–	–	–
COc1cc2cc(-c3c(C)nc(NCC(C)(C)C)nc3N[C@@H]3C[C@H](CO)[C@@H](O)[C@H]3O)oc2c(C)n1.Cl	–	–	–	4.4	1180
CCc1cc2cc(-c3c(C)nc(NCCCC(F)(F)F)nc3N[C@@H]3C[C@H](CO)[C@@H](O)[C@H]3O)oc2cn1	7.70	> 25	17	–	–
COc1cc(CNc2nc(C)c(-c3cc4cc(OC)nc(C)c4o3)c(N[C@@H]3C[C@H](CO)[C@@H](O)[C@H]3O)n2)cc(OC)c1	8.00	25	> 25	–	–
CCc1cc2cc(-c3c(Cl)nc(N)nc3N[C@@H]3C[C@H](CO)[C@@H](O)[C@H]3O)oc2cn1.Cl	–	–	–	0.07	–
CCc1cc2cc(-c3c(C)nc(NCC(C)(C)C)nc3N[C@@H]3C[C@H](CO)[C@@H](O)[C@H]3O)oc2cn1.Cl	–	–	–	4	315
CCc1cc2cc(-c3c(Cl)nc(N)nc3N[C@@H]3C[C@H](CO)[C@@H](O)[C@H]3O)oc2c(C)n1	8.00	16	13	–	–
CCc1cc2cc(-c3c(Cl)nc(N)nc3N[C@@H]3C[C@H](CO)[C@@H](O)[C@H]3O)oc2c(CC)n1.Cl	–	–	–	0.17	–
CCc1nc(C)cc2cc(-c3c(Cl)nc(N)nc3N[C@@H]3C[C@H](CO)[C@@H](O)[C@H]3O)oc12	7.52	20	9	–	–
CCc1cc2cc(-c3c(Cl)nc(N)nc3N[C@@H]3C[C@H](CO)[C@@H](O)[C@H]3O)oc2c(C)n1.Cl	–	–	–	0.01	–
CCOc1cc2cc(-c3c(C)nc(NCC(F)(F)F)nc3N[C@@H]3C[C@H](CO)[C@@H](O)[C@H]3O)oc2c(C)n1.Cl	–	–	–	8.9	3020
CCOc1cc2cc(-c3c(C)nc(NCc4cc(OC)cc(OC)c4)nc3N[C@@H]3C[C@H](CO)[C@@H](O)[C@H]3O)oc2c(C)n1.Cl	–	–	–	0.35	238
Cc1cc2cc(-c3c(Cl)nc(N)nc3N[C@@H]3C[C@H](CO)[C@@H](O)[C@H]3O)oc2cn1	7.52	25	9	–	–
CCOc1cc2cc(-c3c(C)nc(NCC4CC4)nc3N[C@@H]3C[C@H](CO)[C@@H](O)[C@H]3O)oc2c(C)n1	7.70	25	25	–	–
CCOc1cc2cc(-c3c(C)nc(Nc4ccccc4)nc3N[C@@H]3C[C@H](CO)[C@@H](O)[C@H]3O)oc2c(C)n1	6.82	18	24	–	–
CCCCCNc1nc(C)c(-c2cc3cc(CC)ncc3o2)c(N[C@@H]2C[C@H](CO)[C@@H](O)[C@H]2O)n1.Cl	–	–	–	0.48	31
CCc1cc2cc(-c3c(C)nc(NCc4cc(OC)cc(OC)c4)nc3N[C@@H]3C[C@H](CO)[C@@H](O)[C@H]3O)oc2cn1.Cl	–	–	–	0.1	20
CCOCCNc1nc(C)c(-c2cc3cc(CC)ncc3o2)c(N[C@@H]2C[C@H](CO)[C@@H](O)[C@H]2O)n1	8.40	16	4	–	–
CCc1cc2cc(-c3c(C)nc(NC)nc3N[C@@H]3C[C@H](CO)[C@@H](O)[C@H]3O)oc2cn1.Cl	–	–	–	0.9	936
Nc1nc(Cl)c(-c2cc3ncccc3o2)c(N[C@@H]2C[C@H](CO)[C@@H](O)[C@H]2O)n1	< 4.60	21	–	–	–

Source: ChEMBL document CHEMBL2057163, “Pyridofuran substituted pyrimidine derivatives as HCV replication (replicase) inhibitors” (Bioorg Med Chem Lett, 2012)
